According to patent US11739162B2, “Side chain modified peptoids useful as structure-stabilizing coatings for biomaterials” (Brookhaven Science Associates, LLC, priority 2019, dated 2023):

What was measured:
[1] = test system: octahedra-shaped DNA origamis (OCs); experiment: Negative-stained TEM imaging of peptoid-coated OCs; format: physicochemical; conditions: N/P 0.5, 0.25, 0.1; TAE 12.5 mM MgCl2
Method: Preparation of peptoid-coated OCs. The synthesized peptoids were dissolved in deionized water at a concentration of 10 mM and stored at 4° C.
Negative-stained TEM imaging. […] In brief, […] of the peptoid-coated OC (5-10 nM) solution was dropped on a carbon film for 1-3 min and the residual liquid was removed with a piece of filter paper. After that, the grid was washed with […] of deionized water followed by staining with […] of 2 wt % uranyl acetate for 15 sec. The excess liquid was removed with filter papers. TEM imaging was performed on a JEOL 1400 TEM with an acceleration voltage of 120 kV.

deoxyribonuclease I (DN) = experiment: Nuclease degradation assays (AGE, TEM, DLS); conditions: DN 15 μg/mL, 30 min, 37° C., N/P 0.5
Method: The samples were incubated at 37° C. for 30 min at 650 rpm on a thermal cycler (Eppendorf) and characterized using AGE and negative-stained TEM imaging.

15-bp dsDNA = experiment: Real-time SYBR Green I (SG) fluorescence assay of duplex DNA (dsDNA); format: binding; conditions: dsDNA/peptoid complexes
Method: A15-bp dsDNA was designed with a sequence of 5′-[…]-3′ (SEQ ID NO: 124) with a complementary sequence of 5′-[…]-3′ (SEQ ID NO: 125). The dsDNA (500 μM) was formed in PBS (1×) buffer and cooled from 70° C. to room temperature over 11 h. Next, the dsDNA (100 nM) solution was mixed with different peptoid solutions at varied concentrations in PBS overnight at room temperature. Prior to measuring fluorescence, SG (1×) was added to the dsDNA/peptoid mixtures for 2 h at room temperature. The fluorescence signal was recorded from 37° C. to 85° C. at a step of 0.03° C./sec by LightCycler 480. The concentrations of only peptoids in solution were the same as those in the N/P of 8, which were 3.43 μM for PE1, PE3, PE4, PE5, and 1.85 μM for PE2, respectively.

trypsin = experiment: Fluorescence assay for tryptic digestion of BSA; format: biochemical; conditions: trypsin 50 nM, 37° C.
Method: First, NHS-fluorescein (240 μM) and NHS-PEG-azide (60 μM) was mixed with BSA (10 μM) in PBS (1×) buffer for 3 h at room temperature. The solution was purified 8 times with PBS using a 50 kDa filter and centrifuged at 3000 rcf and at 4° C. Next, the DBCO-modified single-stranded DNA (ssHy, 5′-[…]/3DBCO/, 250 μM) (SEQ ID NO: 1) was mixed with the BSA solution (10 μM) overnight (˜12 h) at 4° C. The solution was purified 8 times with PBS using a 50 kDa filter and centrifuged at 3000 rcf at 4° C. Finally, the surface-modified BSA (200 nM) was added to the OCs (40 nM) and the solution was cooled down from 45° C. to room temperature over a time course of 60 h. The solution was purified 2 times with TAE (1×) buffer containing 12.5 mM MgCl2 using a 100 kDa filter and centrifuged at 400 rcf and at 4° C.
(1) The fluorescein-modified BSA (80 nM) solution without OCs was incubated at 37° C. in the presence or absence of trypsin (50 nM) overnight ˜12 h prior to fluorescence measurement. Fluorescence spectra were measured with excitation and emission wavelengths of 490 nm and 510-750 nm, respectively and a step size of 2 nm. […] The fluorescence kinetics were measured at λex and λem of 490 nm and 525 nm, respectively and time interval of 3 min. Fluorescence spectra were measured after 15 h at excitation and emission wavelengths of 490 nm and 510-800 nm, respectively and a step size of 2 nm.

COCCOCCOCCN(CC(N)=O)C(=O)CN(CCOC)C(=O)CN(CCOCCOCCOC)C(=O)CN(CCN)C(=O)CN(CCOCCOCCOC)C(=O)CN(CCOC)C(=O)CN(CCOCCOCCOC)C(=O)CN(CCN)C(=O)CN(CCOCCOCCOC)C(=O)CN(CCOC)C(=O)CN(CCOCCOCCOC)C(=O)CN(CCN)C(=O)CN(CCOCCOCCOC)C(=O)CN(CCOC)C(=O)CN(CCOCCOCCOC)C(=O)CN(CCN)C(=O)CN(CCOCCOCCOC)C(=O)CN(CCOC)C(=O)CN(CCOCCOCCOC)C(=O)CN(CCN)C(=O)CN(CCOCCOCCOC)C(=O)CN(CCOC)C(=O)CN(CCOCCOCCOC)C(=O)CNCCN [PE3, Nae6-Nte12 brush]
morphology / aggregation of peptoid-coated OCs (TEM) [1]: less aggregation than PE1 | OC structure after incubation with DN (TEM) (deoxyribonuclease I (DN)): some extents of capability to preserve the origami structure | relative performance in raising the Tm of the dsDNA (ranking) (15-bp dsDNA): Tm (dsDNA/PE3)>Tm (dsDNA/PE5)

COCCOCCOCCN(CC(N)=O)C(=O)CN(CCOCCOCCOC)C(=O)CN(CCOCCOCCOC)C(=O)CN(CCOCCOCCOC)C(=O)CN(CCOCCOCCOC)C(=O)CN(CCOCCOCCOC)C(=O)CN(CCN)C(=O)CN(CCN)C(=O)CN(CCN)C(=O)CN(CCN)C(=O)CN(CCN)C(=O)CNCCN [PE4, Nae6-Nte6 block]
OC structure after incubation with DN (TEM) (deoxyribonuclease I (DN)): some extents of capability to preserve the origami structure | relative performance in raising the Tm of the dsDNA (ranking) (15-bp dsDNA): Tm (dsDNA/PE2)>Tm (dsDNA/PE1)>Tm (dsDNA/PE4)

fluorescein labeled BSA: bovine serum albumin modified with fluorescein, trypsin substrate [reference compound]
fluorescence enhancement of fluorescein labeled BSA in the presence of trypsin (trypsin): 85%
